Measured values as given in patent publication US11458091B2, “Compositions and methods for the treatment of opioid overdose” (Opiant Pharmaceuticals, Inc., priority 2016, dated 2022).
Read-outs that look alike come from different tables or passages of the source.

Experiments:
[1] = for AUCextrap / Cmax/D / Lambda z: mean
clinical = settings: human, in vivo; for concentration at 0 h: Hour 0.0; for concentration at 36 h: Hour 36.0; for concentration at 48 h: Hour 48.0; for concentration at 60 h: Hour 60.0; for concentration at 72 h: Hour 72.0; for concentration at 0.08 h: Hour 0.08; for concentration at 2 h: Hour 2.0; for concentration at 3 h: Hour 3.0; for Tmax: median; for concentration at 0.5 h: Hour 0.50; for concentration at 1 h: Hour 1.0; for concentration at 4 h: Hour 4.0
[2] = in vivo; cited from earlier work
[3] = cited from earlier work
[4] = Intranasal naltrexone with Intravail, AUC (data not presented); assay type: in vivo; settings: effect of Intravail
Excerpt: This important difference could not be predicted based on structure of the opioid antagonists, or the function of these moieties as opioid antagonists.

[5] = design: increase of total exposure (AUC): reference not given here; settings: intranasal formulation with […] Intravail, cited from earlier work
[6] = 3 mg plus […] Intravail IN, N = 14
[7] = 1.5 mg, Mean plasma concentration of nalmefene, 1.5 mg IM
[8] = 1.5 mg, Mean plasma concentration of nalmefene, 1.5 mg IN
[9] = 3 mg, Mean plasma concentration of nalmefene, 3 mg + […] Intravail IN
[10] = 3 mg, Mean plasma concentration of nalmefene, 3 mg IN

Compound: C=C1CC[C@@]2(O)[C@H]3Cc4ccc(O)c5c4[C@@]2(CCN3CC2CC2)[C@H]1O5 [Nalmefene, 17-cyclopropylmethyl-4,5α-epoxy-6-methylenemorphinan-3,14-diol]
- Mean plasma concentration of nalmefene ([1]; 1.5 mg IM, Hour 0.08): 0.457 ng/mL
- Mean plasma concentration of nalmefene ([1]; 1.5 mg IM, Hour 0.17): 1.01 ng/mL
- Mean plasma concentration of nalmefene ([1]; 1.5 mg IM, Hour 0.25): 1.43 ng/mL
- Mean plasma concentration of nalmefene ([1]; 1.5 mg IM, Hour 0.33): 1.33 ng/mL
- Mean plasma concentration of nalmefene ([1]; 1.5 mg IM, Hour 0.50): 1.19 ng/mL
- Mean plasma concentration of nalmefene ([1]; 1.5 mg IM, Hour 0.75): 1.14 ng/mL
- Mean plasma concentration of nalmefene ([1]; 1.5 mg IM, Hour 1.0): 1.08 ng/mL
- Mean plasma concentration of nalmefene ([1]; 1.5 mg IM, Hour 2.0): 1.03 ng/mL
- Mean plasma concentration of nalmefene ([1]; 1.5 mg IM, Hour 3.0): 0.878 ng/mL
- Mean plasma concentration of nalmefene ([1]; 1.5 mg IM, Hour 4.0): 0.798 ng/mL
- Mean plasma concentration of nalmefene ([1]; 1.5 mg IM, Hour 6.0): 0.688 ng/mL
- Mean plasma concentration of nalmefene ([1]; 1.5 mg IM, Hour 8.0): 0.603 ng/mL
- Mean plasma concentration of nalmefene ([1]; 1.5 mg IM, Hour 12.0): 0.470 ng/mL
- Mean plasma concentration of nalmefene ([1]; 1.5 mg IM, Hour 16.0): 0.298 ng/mL
- Mean plasma concentration of nalmefene ([1]; 1.5 mg IM, Hour 24.0): 0.128 ng/mL
- Mean plasma concentration of nalmefene ([1]; 1.5 mg IM, Hour 30.0): 0.0740 ng/mL
- AUCextrap ([1]; 1.5 mg IM, N = 13): 22.6%
- Cmax/D ([1]; 1.5 mg IM, N = 13): 1.12 ng/mL/mg
- Lambda z ([1]; 1.5 mg IM, N = 13): 0.094 h⁻¹
- AUCextrap ([1]; 1.5 mg IN, N = 14): 30.6%
- Cmax/D ([1]; 1.5 mg IN, N = 14): 0.646 ng/mL/mg
- Lambda z ([1]; 1.5 mg IN, N = 14): 0.131 h⁻¹
- AUCextrap ([1]; 3 mg IN, N = 14): 17.9%
- Cmax/D ([1]; 3 mg IN, N = 14): 0.731 ng/mL/mg
- Lambda z ([1]; 3 mg IN, N = 14): 0.101 h⁻¹
- AUCextrap [1, 6]: 14.6%
- Cmax/D [1, 6]: 1.65 ng/mL/mg
- Lambda z [1, 6]: 0.117 h⁻¹
- half-life (clinical; 1.5 mg, 1.5 mg IN, mean, N = 14): 6.74 h
- concentration at 0 h (clinical; [7]): 0 ng/mL
- concentration at 36 h (clinical; [7]): 0 ng/mL
- concentration at 48 h (clinical; [7]): 0 ng/mL
- concentration at 60 h (clinical; [7]): 0 ng/mL
- concentration at 72 h (clinical; [7]): 0 ng/mL
- concentration at 0 h (clinical; [8]): 0 ng/mL
- concentration at 0.08 h (clinical; [8]): 0 ng/mL
- concentration at […] (clinical; 1.5 mg, Mean plasma concentration of nalmefene, 1.5 mg IN, Hour 0.75): 0.691 ng/mL
- concentration at 2 h (clinical; [8]): 0.872 ng/mL
- concentration at 3 h (clinical; [8]): 0.712 ng/mL
- concentration at 12 h (clinical; 1.5 mg, Mean plasma concentration of nalmefene, 1.5 mg IN, Hour 12.0): 0.141 ng/mL
- concentration at 30 h (clinical; 1.5 mg, Mean plasma concentration of nalmefene, 1.5 mg IN, Hour 30.0): 0 ng/mL
- concentration at 36 h (clinical; [8]): 0 ng/mL
- concentration at 48 h (clinical; [8]): 0 ng/mL
- concentration at 60 h (clinical; [8]): 0 ng/mL
- concentration at 72 h (clinical; [8]): 0 ng/mL
- Tmax (clinical; 1.5 mg, 1.5 mg IN, N = 14): 2 h
- AUC(0-t) (clinical; 3 mg, AUC0-t, 3 mg plus […] Intravail IN, mean, N = 14): 17.3 ng·h/mL
- half-life (clinical; 3 mg, 3 mg IN, mean, N = 14): 7.84 h
- half-life (clinical; 3 mg, 3 mg plus […] Intravail IN, mean, N = 14): 6.78 h
- concentration at 0 h (clinical; [9]): 0 ng/mL
- concentration at 0.08 h (clinical; [9]): 0.931 ng/mL
- concentration at […] (clinical; 3 mg, Mean plasma concentration of nalmefene, 3 mg + […] Intravail IN, Hour 0.17): 3.69 ng/mL
- concentration at […] (clinical; 3 mg, Mean plasma concentration of nalmefene, 3 mg + […] Intravail IN, Hour 0.25): 4.38 ng/mL
- concentration at […] (clinical; 3 mg, Mean plasma concentration of nalmefene, 3 mg + […] Intravail IN, Hour 0.33): 3.53 ng/mL
- concentration at 0.5 h (clinical; [9]): 3.2 ng/mL
- concentration at 1 h (clinical; [9]): 2.54 ng/mL
- concentration at 2 h (clinical; [9]): 1.99 ng/mL
- concentration at 3 h (clinical; [9]): 1.57 ng/mL
- concentration at 4 h (clinical; [9]): 1.32 ng/mL
- concentration at 6 h (clinical; 3 mg, Mean plasma concentration of nalmefene, 3 mg + […] Intravail IN, Hour 6.0): 0.91 ng/mL
- concentration at 36 h (clinical; [9]): 0.0149 ng/mL
- concentration at 48 h (clinical; [9]): 0 ng/mL
- concentration at 60 h (clinical; [9]): 0 ng/mL
- concentration at 72 h (clinical; [9]): 0 ng/mL
- concentration at 0 h (clinical; [10]): 0 ng/mL
- concentration at 0.08 h (clinical; [10]): 0 ng/mL
- concentration at […] (clinical; 3 mg, Mean plasma concentration of nalmefene, 3 mg IN, Hour 0.25): 0.392 ng/mL
- concentration at 0.5 h (clinical; [10]): 1.01 ng/mL
- concentration at […] (clinical; 3 mg, Mean plasma concentration of nalmefene, 3 mg IN, Hour 0.75): 1.4 ng/mL
- concentration at 1 h (clinical; [10]): 1.68 ng/mL
- concentration at 3 h (clinical; [10]): 1.53 ng/mL
- concentration at 4 h (clinical; [10]): 1.22 ng/mL
- concentration at 24 h (clinical; 3 mg, Mean plasma concentration of nalmefene, 3 mg IN, Hour 24.0): 0.125 ng/mL
- concentration at 48 h (clinical; [10]): 0 ng/mL
- concentration at 60 h (clinical; [10]): 0 ng/mL
- concentration at 72 h (clinical; [10]): 0 ng/mL
- Tmax (clinical; 3 mg, 3 mg IN, N = 14): 2 h
- incidence of common adverse reactions (nausea, vomiting, tachycardia, hypertension, postoperative pain, fever, dizziness, headache, chills, hypotension, vasodilation) [2]: greater than 1%
- potency versus naloxone ([3]; milligram-per-milligram basis): equipotent on a milligram-per-milligram basis
- clearance ([3]; versus naloxone): slower than naloxone

Compound: O=C1CC[C@@]2(O)[C@H]3Cc4ccc(O)c5c4[C@@]2(CCN3CC2CC2)[C@H]1O5 [naltrexone, 17-(cyclopropylmethyl)-4,5α-epoxy-3,14-dihydroxymorphinan-6-one]
- AUC [4]: increased significantly

Compound: CNS(=O)(=O)Cc1ccc2[nH]cc(CCN(C)C)c2c1 [sumatriptan]
- increase of maximum plasma concentration ([5]; in comparison to Imitrex nasal spray): almost four-fold
- Tmax [5]: 8 to 10 min
- increase of total exposure (AUC) [5]: 32%
